Experimental data taken from ChEMBL document CHEMBL4732126, “Design, synthesis, and biodistribution studies of new analogues of marine alkaloids: Potent in vitro and in vivo fungicidal agents against Candida spp” (Eur J Med Chem, 2021).
Activity calls are given as the source filed them. The rule behind the calls is not given here.

How the values were obtained:
[1] = system: Candida albicans; experiment: Antibiofilm activity against Candida albicans ATCC 10231 assessed as reduction in mature biofilm incubated for 48 hrs by crystal violet staining based spectrophotometric analysis relative to control; assay type: functional, organism-based; settings: dose 0.48-125 µg/ml
[2] = Toxicity in Swiss mouse assessed as relative liver weight at 10 mg/kg, ip measured after 24 hrs (reference value: 49.42 +/- 7.17 g); assay type: organism-based; settings: in vivo
[3] = Toxicity in Swiss mouse infected with Candida albicans ATCC 10231 assessed as effect on spleen at 10 mg/kg, ip administered at 2, 24 and 48 hrs post-infection and measured at 24 hrs after last dose by macroscopic analysis; assay type: organism-based; settings: in vivo, 72 h
[4] = Toxicity in Swiss mouse assessed as effect on spleen at 0.5 to 10 mg/kg, ip measured after 24 hrs by macroscopic analysis; assay type: organism-based; settings: in vivo, dose 0.5-10 mg/kg
[5] = Toxicity in Swiss mouse assessed as signs of toxicity at 0.5 to 10 mg/kg, ip measured upto 4 hrs; assay type: organism-based; settings: in vivo, dose 0.5-10 mg/kg
[6] = Toxicity in Swiss mouse infected with Candida albicans ATCC 10231 assessed as effect on kidney at 10 mg/kg, ip administered at 2, 24 and 48 hrs post-infection and measured at 24 hrs after last dose by macroscopic analysis; assay type: organism-based; settings: in vivo, 72 h
[7] = system: Candida albicans; experiment: Fungicidal activity against Candida albicans isolate 1 assessed as fungal killing incubated for 48 hrs followed by plating on SD agar plate; assay type: functional; settings: read-out: MFC99.9
[8] = system: Pichia kudriavzevii; experiment: Antifungal activity against Candida krusei ATCC 34135 assessed as reduction in fungal growth incubated for 48 hrs in presence of ergosterol by broth microdilution method; assay type: functional
[9] = system: Candida albicans; experiment: Fungicidal activity against Candida albicans isolate 4 assessed as fungal killing incubated for 48 hrs followed by plating on SD agar plate; assay type: functional; settings: read-out: MFC99.9
[10] = system: Candida tropicalis; experiment: Antifungal activity against Candida tropicalis ATCC 28707 assessed as reduction in fungal growth incubated for 48 hrs in presence of sorbitol by broth microdilution method; assay type: functional
[11] = system: Candida albicans; experiment: Fungicidal activity against Candida albicans isolate 6 assessed as fungal killing incubated for 48 hrs followed by plating on SD agar plate; assay type: functional; settings: read-out: MFC99.9
[12] = Toxicity in Swiss mouse infected with Candida albicans ATCC 10231 assessed as effect on lung at 10 mg/kg, ip administered at 2, 24 and 48 hrs post-infection and measured at 24 hrs after last dose by macroscopic analysis; assay type: organism-based; settings: in vivo, 72 h
[13] = system: Candida albicans; experiment: Antifungal activity against Candida albicans ATCC 10231 assessed as reduction in fungal growth incubated for 48 hrs by broth microdilution method; assay type: functional
[14] = system: Pichia kudriavzevii; experiment: Disruption of cell membrane in Candida krusei ATCC 34135 assessed as increase in intracellular leakage at MIC incubated for 24 hrs by UV spectrophotometric analysis; assay type: cell-based
[15] = system: Candida albicans; experiment: Antifungal activity against Candida albicans isolate 2 assessed as reduction in fungal growth incubated for 48 hrs by broth microdilution method; assay type: functional
[16] = Toxicity in Swiss mouse assessed as body weight at 0.5 mg/kg, ip measured after 24 hrs (reference value: 36.25 +/- 0.31 g); assay type: organism-based; settings: in vivo
[17] = Toxicity in Swiss mouse assessed as effect on heart at 0.5 to 10 mg/kg, ip measured after 24 hrs by macroscopic analysis; assay type: organism-based; settings: in vivo, dose 0.5-10 mg/kg
[18] = system: Nakaseomyces glabratus; experiment: Antifungal activity against Candida glabrata ATCC 2001 assessed as reduction in fungal growth incubated for 48 hrs in presence of sorbitol by broth microdilution method; assay type: functional
[19] = system: Candida albicans; experiment: In vivo antifungal activity in Swiss mouse infected with Candida albicans ATCC 10231 assessed as reduction in fungal load in liver at 1 mg/kg, ip administered at 2, 24 and 48 hrs post-infection and measured per gm of organ at 24 hrs post-last dose (reference value: 1.80); assay type: functional; settings: time 72 hrs
[20] = Toxicity in Swiss mouse infected with Candida albicans ATCC 10231 assessed as effect on liver at 10 mg/kg, ip administered at 2, 24 and 48 hrs post-infection and measured at 24 hrs after last dose by macroscopic analysis; assay type: organism-based; settings: in vivo, 72 h
[21] = Toxicity in Swiss mouse assessed as relative lung weight at 0.5 mg/kg, ip measured after 24 hrs (reference value: 6.35 +/- 0.68 g); assay type: organism-based; settings: in vivo
[22] = system: Candida albicans; experiment: Antifungal activity against Candida albicans isolate 7 assessed as reduction in fungal growth incubated for 48 hrs by broth microdilution method; assay type: functional
[23] = Toxicity in Swiss mouse assessed as relative liver weight at 1 mg/kg, ip measured after 24 hrs (reference value: 49.42 +/- 7.17 g); assay type: organism-based; settings: in vivo
[24] = Toxicity in Swiss mouse infected with Candida albicans ATCC 10231 assessed as effect on liver weight at 10 mg/kg, ip administered at 2, 24 and 48 hrs post-infection and measured at 24 hrs after last dose; assay type: organism-based; settings: in vivo, 72 h
[25] = system: Candida albicans; experiment: Fungicidal activity against Candida albicans isolate 13 assessed as fungal killing incubated for 48 hrs followed by plating on SD agar plate; assay type: functional; settings: read-out: MFC99.9
[26] = system: Nakaseomyces glabratus; experiment: Antifungal activity against Candida glabrata ATCC 2001 assessed as reduction in fungal growth incubated for 48 hrs in presence of ergosterol by broth microdilution method; assay type: functional
[27] = Toxicity in Swiss mouse infected with Candida albicans ATCC 10231 assessed as effect on heart at 10 mg/kg, ip administered at 2, 24 and 48 hrs post-infection and measured at 24 hrs after last dose by macroscopic analysis; assay type: organism-based; settings: in vivo, 72 h
[28] = Toxicity in Swiss mouse assessed as body weight at 1 mg/kg, ip measured after 24 hrs (reference value: 36.25 +/- 0.31 g); assay type: organism-based; settings: in vivo
[29] = Toxicity in Swiss mouse infected with Candida albicans ATCC 10231 assessed as effect on spleen weight at 10 mg/kg, ip administered at 2, 24 and 48 hrs post-infection and measured at 24 hrs after last dose; assay type: organism-based; settings: in vivo, 72 h
[30] = system: Candida albicans; experiment: Fungicidal activity against Candida albicans isolate 3 assessed as fungal killing incubated for 48 hrs followed by plating on SD agar plate; assay type: functional; settings: read-out: MFC99.9
[31] = system: Candida albicans; experiment: Fungicidal activity against Candida albicans ATCC 10231 assessed as reduction in fungal load at 7.8 to 15.6 ug/ml incubated for 8 hrs followed by inoculation on SD agar plate for 48 hrs by time-kill assay; assay type: functional, organism-based; settings: dose 7.8-15.6 µg/ml, time 56.0 hrs
[32] = system: Candida albicans; experiment: Antifungal activity against Candida albicans isolate 12 assessed as reduction in fungal growth incubated for 48 hrs by broth microdilution method; assay type: functional
[33] = Toxicity in Swiss mouse assessed as body weight at 3 mg/kg, ip measured after 24 hrs (reference value: 36.25 +/- 0.31 g); assay type: organism-based; settings: in vivo
[34] = system: Candida albicans; experiment: Antifungal activity against Candida albicans ATCC 10231 assessed as reduction in fungal growth incubated for 48 hrs in presence of ergosterol by broth microdilution method; assay type: functional
[35] = Toxicity in Swiss mouse assessed as effect on liver at 0.5 to 10 mg/kg, ip measured after 24 hrs by macroscopic analysis; assay type: organism-based; settings: in vivo, dose 0.5-10 mg/kg
[36] = system: Candida albicans; experiment: Fungicidal activity against Candida albicans isolate 12 assessed as fungal killing incubated for 48 hrs followed by plating on SD agar plate; assay type: functional; settings: read-out: MFC99.9
[37] = system: Candida albicans; experiment: In vivo antifungal activity in Swiss mouse infected with Candida albicans ATCC 10231 assessed as reduction in fungal load in kidney at 0.5 mg/kg, ip administered at 2, 24 and 48 hrs post-infection and measured per gm of organ at 24 hrs post-last dose (reference value: 2.47); assay type: functional; settings: time 72 hrs

Q: What does the source list for `[Cl-].[N-]=[N+]=NCCCCCCCCCCCCOCCCc1ccc[n+](Cc2ccccc2)c1`?
A: Activity [1]: Dose-dependent effect; Activity [2]: 43.58 g; Activity [3]: Non-Toxic; Activity [4]: Non-Toxic; Activity [5]: Non-Toxic; Activity [6]: Non-Toxic; MFC [7]: 7.8 µg/mL; MIC [8]: 15.6 µg/mL; MFC [9]: 1.95 µg/mL; MIC [10]: 7.8 µg/mL; MFC [11]: 31.2 µg/mL; Activity [12]: Non-Toxic; MIC [13]: 7.8 µg/mL; Activity [14]: Active; MIC [15]: 7.8 µg/mL; Activity [16]: 37.37 g; Activity [17]: Non-Toxic; MIC [18]: 7.8 µg/mL; Activity [19]: 1.78 log10CFU; Activity [20]: Non-Toxic; Activity [21]: 5.57 g; MIC [22]: 1.95 µg/mL; Activity [23]: 44.68 g; Activity [24]: Non-Toxic; MFC [25]: 7.8 µg/mL; MIC [26]: 7.8 µg/mL; Activity [27]: Non-Toxic; Activity [28]: 37.87 g; Activity [29]: Non-Toxic; MFC [30]: 7.8 µg/mL; Activity [31]: Active; MIC [32]: 7.8 µg/mL; Activity [33]: 38.87 g; MIC [34]: 7.8 µg/mL; Activity [35]: Non-Toxic; MFC [36]: 7.8 µg/mL; Activity [37]: 0 log10CFU
